From PubChem BioAssay (NCI)
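Interpolation was linear, between the two tested concentrations surrounding the appropriate level; five concentrations were tested over 48 hours in 96-well plates. GI50 = concentration required for 50% inhibition of growth. TGI is the concentration that stops growth completely.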

How the values were obtained:
Test in all cases: inhibition of tumour cell growth, NCI panel, 48 h
A549 NSCLC = system: A549 NSCLC
SF-268 CNS = system: SF-268 CNS
SK-MEL-28 melanoma = system: SK-MEL-28 melanoma
HOP-62 NSCLC = system: HOP-62 NSCLC
UO-31 renal = system: UO-31 renal
RPMI-8226 leukemia = system: RPMI-8226 leukemia
EKVX NSCLC = system: EKVX NSCLC
MOLT-4 leukemia = system: MOLT-4 leukemia
NCI/ADR-RES ovarian = system: NCI/ADR-RES ovarian
MALME-3M melanoma = system: MALME-3M melanoma

| SMILES | GI50 (A549 NSCLC) | TGI (A549 NSCLC) | GI50 (SF-268 CNS) | TGI (SF-268 CNS) | GI50 (SK-MEL-28 melanoma) | TGI (SK-MEL-28 melanoma) | GI50 (HOP-62 NSCLC) | GI50 (UO-31 renal) | TGI (UO-31 renal) | GI50 (RPMI-8226 leukemia) | TGI (RPMI-8226 leukemia) | GI50 (EKVX NSCLC) | TGI (EKVX NSCLC) | GI50 (MOLT-4 leukemia) | TGI (MOLT-4 leukemia) | GI50 (NCI/ADR-RES ovarian) | TGI (NCI/ADR-RES ovarian) | TGI (MALME-3M melanoma) | TGI (HOP-62 NSCLC) |
| --- | --- | --- | --- | --- | --- | --- | --- | --- | --- | --- | --- | --- | --- | --- | --- | --- | --- | --- | --- |
| COc1cc2ncnc(-n3ncc4cc(NC(=O)Nc5ccccc5)ccc43)c2cc1OC | 1790 nM | 8.74 µM | 1550 nM | 11.2 µM | 1380 nM | 4.33 µM | 1300 nM | 499 nM | 2.84 µM | 934 nM | 12 µM | 1590 nM | 7.3 µM | 860 nM | 3.56 µM | 2520 nM | 17.6 µM |  |  |
| Cc1[nH]c(=O)nc2[nH][nH]c(=O)c12 |  | > 100 µM |  | > 100 µM |  | > 100 µM |  |  |  |  | > 100 µM |  | > 100 µM |  | > 100 µM |  |  | > 100 µM | > 100 µM |
| COC(=O)C(CC(=O)Nc1ccc(C)cc1)C(=O)C(=O)Nc1c(C(C)C)cccc1C(C)C (stereo not drawn) |  | > 100 µM |  | > 100 µM |  | > 100 µM |  |  | > 100 µM |  | > 100 µM |  | > 100 µM |  | > 100 µM |  |  | > 100 µM | > 100 µM |
| CCOC(=O)CCC(=O)C1c2cccc(O)c2C(=O)c2c(O)cc(C)cc21 (stereo not drawn) |  | 3.86 µM |  |  |  | 2.92 µM |  |  | 1.19 µM |  | 5.77 µM |  | 3.91 µM |  | 6.76 µM |  |  | 2.65 µM | 2.21 µM |
| COc1cc(/C=C/c2ccc(OC)c(O)c2)cc(OC)c1 |  | 33.3 µM |  | 80.5 µM |  | 24.5 µM |  |  | 41.9 µM |  | 9.92 µM |  | 90 µM |  | 15.7 µM |  |  | 38 µM | 15.4 µM |
| CCCC1=C(CC)C(C(=O)Nc2c(C)cccc2C)=NC(S)N1 (stereo not drawn) |  | > 100 µM |  | > 100 µM |  | > 100 µM |  |  | > 100 µM |  | > 100 µM |  | > 100 µM |  | > 100 µM |  |  | > 100 µM | > 100 µM |
| COc1cc2[nH]c3c(c2cc1OC)CCN[C@]31CC[C@]2(CC3c4c(cc(OC)c(O)c42)CCN3C)C[C@H]1OC (stereo partly drawn) |  | 68.8 µM |  | 68.2 µM |  | 36.6 µM |  |  |  |  | 41.9 µM |  | > 100 µM |  | 33.8 µM |  |  | 36.3 µM | 48 µM |
| CNC(=S)/N=C(\N)N(C)C |  | > 100 µM |  | > 100 µM |  | > 100 µM |  |  | > 100 µM |  | > 100 µM |  | > 100 µM |  | > 100 µM |  |  | > 100 µM | > 100 µM |
| O=C(/C=C/c1ccc(Cl)c(Cl)c1)c1ccc2ccccc2c1 |  | > 100 µM |  | > 100 µM |  | > 100 µM |  |  | > 100 µM |  | > 100 µM |  | > 100 µM |  | > 100 µM |  |  | > 100 µM | > 100 µM |
| COc1ccc2c3c([nH]c2c1[N+](=O)[O-])C(C)N(C)CC3 (stereo not drawn) |  | > 100 µM |  |  |  | > 100 µM |  |  | > 100 µM |  | > 100 µM |  | > 100 µM |  | > 100 µM |  |  | > 100 µM | > 100 µM |
| CC(C)c1c(O)c(O)c2c(c1O)C(=O)C(O)=C1C(C)(C)CCC[C@@]12C |  | 14.3 µM |  | 20 µM |  | 17.7 µM |  |  | 7 µM |  | 3.99 µM |  | 11.5 µM |  | 5.99 µM |  |  | 15.9 µM | > 100 µM |
